Laboratory results: PubChem BioAssay AID743351 (Broad Institute, 2014)
Activity calls are given as the source filed them. The rule behind the calls is not given here.

tested on: M. tuberculosis BioA-TetON overexpression strain, growth IC90; assay: PubChem AID 743351

Row | Structure (SMILES) | IC90
1 | COCC(=O)N1CC[C@@H]2[C@@H](CO)N(C)c3ccc(-c4cccc(F)c4)cc3[C@@H]21 | > 50 µM (inactive)
2 | CN(C)C(=O)c1ccc(N2CCN(C(=O)c3ccc4c(c3)OCO4)CC2)cc1 | > 50 µM (inactive)
3 | COc1ccc(NC(=O)N2CC[C@@H]3[C@@H](CO)N(C)c4ccc(-c5ccc(F)cc5)cc4[C@@H]32)cc1 | > 50 µM (inactive)
4 | CNS(=O)(=O)c1ccc(N2CCN(C(=O)c3ccc4c(c3)OCO4)CC2)cc1 | > 50 µM (inactive)
5 | CC(=O)c1ccc(N2CC3(CN(C(=O)c4ccc5c(c4)OCO5)C3)C2)cc1 | > 50 µM (inactive)
6 | CNC(=O)c1ccc(N2CCN(C(=O)c3ccc4c(c3)OCO4)CC2)cc1 | > 50 µM (inactive)
7 | CN1c2ccc(-c3ccc(F)cc3)cc2[C@H]2[C@H](CCN2C(=O)Nc2ccc(F)cc2)[C@H]1CO | > 50 µM (inactive)
8 | CN1c2ccc(-c3cccc(F)c3)cc2[C@@H]2[C@@H](CCN2C(=O)c2ccc3c(c2)OCO3)[C@@H]1CO | > 50 µM (inactive)
9 | CN1c2ccc(-c3cccc(F)c3)cc2[C@@H]2[C@@H](CCN2C(=O)c2ccc3c(c2)OCO3)[C@H]1CO | > 50 µM (inactive)
10 | COc1ccccc1NC(=O)N1CC[C@@H]2[C@@H](CO)N(C)c3ccc(-c4cccc(F)c4)cc3[C@@H]21 | > 50 µM (inactive)
11 | COc1ccccc1NC(=O)N1CC[C@@H]2[C@@H](CO)N(C)c3ccc(-c4ccc(F)cc4)cc3[C@@H]21 | > 50 µM (inactive)
12 | CN1c2ccc(-c3cccc(F)c3)cc2[C@H]2[C@H](CCN2C(=O)Nc2ccccc2F)[C@H]1CO | > 50 µM (inactive)
13 | CC(=O)c1ccc(N2CCN(C(=O)c3ccc4c(c3)OCO4)CC2)cc1 | > 50 µM (inactive)
14 | CN1c2ccc(-c3ccc(F)cc3)cc2[C@H]2[C@H](CCN2C(=O)Cc2cccnc2)[C@H]1CO | > 50 µM (inactive)
15 | CN1c2ccc(-c3cccc(F)c3)cc2[C@H]2[C@H](CCN2C(=O)Cc2cccnc2)[C@H]1CO | > 50 µM (inactive)
16 | CN1c2ccc(-c3ccc(F)cc3)cc2[C@H]2[C@H](CCN2C(=O)Cc2ccccn2)[C@H]1CO | > 50 µM (inactive)
17 | CN1c2ccc(-c3cccc(F)c3)cc2[C@H]2[C@H](CCN2C(=O)Cc2ccccc2)[C@H]1CO | > 50 µM (inactive)

Row | Structure (SMILES) | IC90
18 | CN1c2ccc(-c3cccc(F)c3)cc2[C@H]2[C@H](CCN2C(=O)CCCCCCN)[C@H]1CO | > 50 µM (inactive)
19 | CCCNC(=O)N1CC[C@@H]2[C@@H](CO)N(C)c3ccc(-c4ccc(F)cc4)cc3[C@@H]21 | > 50 µM (inactive)
20 | CC(C)NC(=O)N1CC[C@@H]2[C@@H](CO)N(C)c3ccc(-c4cccc(F)c4)cc3[C@@H]21 | > 50 µM (inactive)
21 | COc1ccccc1C(=O)N1CCN(c2ccc(C(C)=O)cc2)CC1 | > 50 µM (inactive)
22 | CC(=O)c1ccc(N2CCN(C(=O)c3ccccc3Cl)CC2)cc1 | > 50 µM (inactive)
23 | CC(=O)c1ccc(N2CCN(C(=O)c3ccccc3F)CC2)cc1 | > 50 µM (inactive)
24 | CC(C)NC(=O)N1CC[C@@H]2[C@@H](CO)N(C)c3ccc(-c4ccc(F)cc4)cc3[C@@H]21 | > 50 µM (inactive)
25 | CN1c2ccc(-c3ccc(F)cc3)cc2[C@H]2[C@H](CCN2C(=O)Nc2cc(F)ccc2F)[C@H]1CO | > 50 µM (inactive)
26 | COc1ccc(NC(=O)N2CC[C@@H]3[C@@H](CO)N(C)c4ccc(-c5cccc(F)c5)cc4[C@@H]32)cc1 | > 50 µM (inactive)
27 | COC(=O)CCCCCCC(=O)N1CC[C@@H]2[C@@H](CO)N(C)c3ccc(-c4cccc(F)c4)cc3[C@@H]21 | > 50 µM (inactive)
28 | CN1c2ccc(-c3cccc(F)c3)cc2[C@H]2[C@H](CCN2C(=O)c2ccc3c(c2)OCO3)[C@@H]1CO | > 50 µM (inactive)
29 | CC(=O)c1ccc(N2CCN(C(=O)c3ccc4c(c3)OCO4)[C@H](C)C2)cc1 | > 50 µM (inactive)
30 | CCCCCCCC(=O)N1CC[C@@H]2[C@@H](CO)N(C)c3ccc(-c4cccc(F)c4)cc3[C@@H]21 | > 50 µM (inactive)
31 | COc1cccc(NC(=O)N2CC[C@@H]3[C@@H](CO)N(C)c4ccc(-c5cccc(F)c5)cc4[C@@H]32)c1 | > 50 µM (inactive)
32 | CN1c2ccc(-c3cccc(F)c3)cc2[C@H]2[C@H](CCN2C(=O)CCCCCCC(=O)O)[C@H]1CO | > 50 µM (inactive)
33 | CC(=O)c1ccc(NCCNC(=O)c2ccc3c(c2)OCO3)cc1 | > 50 µM (inactive)
34 | CCC(=O)N1CC[C@@H]2[C@@H](CO)N(C)c3ccc(-c4ccc(F)cc4)cc3[C@@H]21 | > 50 µM (inactive)
